We go through ten molecules from US12263248B2, “Compounds and compositions for intracellular delivery of therapeutic agents” (ModernaTX, Inc., priority 2018, dated 2025).

Data set [1] in a line: Particle size and polydispersity index of nanoparticle compositions (Zetasizer Nano ZS). The following applies: Table 1A; for Size (nm): lipid:DSPC:cholesterol:PEG-DMG 50:10:38.5:1.5 mol %. The class given is physicochemical. Put shortly: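 Particle size and PDI were measured on a Zetasizer Nano ZS with the nanoparticle compositions dispersed in 1×PBS.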
The nature of data set [2]: Encapsulation efficiency of RNA (QUANT-IT RIBOGREEN RNA assay). The class given is physicochemical. The conditions noted are these: Table 1A. The essentials:
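RiboGreen fluorescence (ex ~480, em ~520 nm) compared between intact samples and Triton X-100-lysed samples after 15 min at 37 °C in TE buffer, pH 7.5. Percent free RNA is the blank-corrected intact/disrupted ratio.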

Data set [3] in a line: Apparent (surface) pKa of the LNP formulation (TNS assay). It is filed as physicochemical. The following applies: Table 1A. On the procedure: Using sodium hydroxide (1 M) and hydrochloric acid (1 M), 21 unique buffers were prepared from the master buffer stock at pH values between about 3 and 12. Next, a stock of 300 μM 6-(p-Toluidino)-2-naphthalenesulfonic acid sodium salt (TNS reagent) in DMSO was prepared and the LNP was mixed with the desired formulation buffer at a concentration of 0.04 mg/mL mRNA. This assay has been validated in 1× PBS and 20 mM Tris w/8% sucrose buffer. The buffer solutions at various pH values were added to a 96-well plate in triplicate for each pH. To each well was added 3.26 μL of LNP sample at a mRNA concentration of 0.04 mg/mL and 2.0 μL of 300 μM TNS reagent solution. After careful mixing, the resulting fluorescence values were read for each plate to create a sigmoidal plot of the fluorescence values vs. buffer pH. The […] inflection point of this curve is the apparent pKa of the LNP formulation.

For data set [4], the system named is luciferase (Luc) mRNA. In words: Luc expression, whole body bioluminescence after intravenous administration to mice. The class given is in vivo. The following applies: for 6 h Lipid/MC3 Avg. Luc Expression / Fold increase AUC Lipid/MC3 / AUC (h * p/s): Table 3C; for 6 h Lipid/MC3 Avg. Luc Expression / Fold increase AUC Lipid/MC3 / AUC (h * p/s) / Fold increase in total body Luc Flux relative to MC3 at 6 h: i.v. administration; for AUC (h * p/s): Luc; for Total Flux 3 hours / Total Flux 6 hours / Total Flux 24 hours: Luc mRNA; for Fold increase in total body Luc Flux relative to MC3 at 6 h: Table 3A. The essentials:
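Luc mRNA nanoparticle formulations given intravenously to mice (n=6) at 0.5 mg/kg; whole-body bioluminescence imaged at 3, 6 and 24 h. CD-1 mice received IP D-luciferin (200 μL of 15 mg/mL) 15 min before imaging; total flux quantified by region of interest.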

For data set [5], the system named is luciferase (Luc) mRNA. Nature of the data set: Luc expression in liver, lung, spleen and femur 6 hours after intravenous administration. The conditions noted are these: mice, 0.5 mpk; for Total Flux Liver / Total Flux Lung / Total Flux Spleen: intravenous. The class given is in vivo. The essentials:
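LNP-formulated mRNA given IV to mice (n=3) at 0.5 mpk; at 6 h, bioluminescence imaged ex vivo 15 min after IP D-luciferin (15 mg/mL, 200 μL), organs imaged within 25 min. Values are total flux by region of interest.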

For the molecule `CCCCCCCCCOC(=O)CCCCCCCN(CCO)CCCCCCCOP(=O)(OCCCCCCCC)OCCCCCCCC` [Compound 131, Nonyl 8-((7-((bis(octyloxy)phosphoryl)oxy)heptyl)(2-hydroxyethyl)amino)octanoate], in data set [1], the PDI came out at 0.095 and the “Size (nm)” value amounted to 167.9 nm. Also, the “EE (%)” value in data set [2] is given as 75.44%. For the same molecule, in data set [3], the pKa (usually the negative logarithm of the acid dissociation constant) turned out to be 7.76. In addition, in data set [4], the “6 h Lipid/MC3 Avg. Luc Expression” value came to 1.05, the “Fold increase AUC Lipid/MC3” value turned out to be 1.13 and the “AUC (h * p/s)” value is 9.29E+10 h * p/s. Also, in data set [4] (mice, i.v., 0.5 mg/kg), the “Total Flux 3 hours” value amounted to 6.97E+09, the “Total Flux 6 hours” value was 7.64E+09 and the “Total Flux 24 hours” value came out at 2.47E+08. Further, in data set [5], the “Total Flux Liver” value came out at 3.52E+08, the “Total Flux Lung” value worked out at 1.45E+07 and the “Total Flux Spleen” value came out at 8.32E+08.

Regarding `CCCCCCCCC(CCCCCCCC)OC(=O)CCCCCCCN(CCO)CCCCCC(=O)N(C)CCCCCCCC` [Compound 146, Heptadecan-9-yl 8-((2-hydroxyethyl)(6-(methyl(octyl)amino)-6-oxohexyl)amino)octanoate], in data set [1], the PDI was determined as 0.210 and the “Size (nm)” value is given as 97.0 nm. For the same molecule, in data set [2], the “EE (%)” value turned out to be 91.94%. The pKa in data set [3] worked out at 7.78. Moreover, in data set [4], the “6 h Lipid/MC3 Avg. Luc Expression” value was 0.011, the “Fold increase AUC Lipid/MC3” value is 0.013 and the “AUC (h * p/s)” value is recorded as 1.04E+09 h * p/s. For the same molecule, in data set [4] (mice, i.v., 0.5 mg/kg), the “Total Flux 3 hours” value is 9.48E+07, the “Total Flux 6 hours” value stood at 8.39E+07 and the “Total Flux 24 hours” value turned out to be 2.30E+06. Besides, in data set [5], the “Total Flux Liver” value came out at 7.24E+06, the “Total Flux Lung” value was 3.88E+06 and the “Total Flux Spleen” value came to 5.11E+07.

For the molecule `CCCCCCCCC(C)OC(=O)CCCCCCCN(CCO)CCCCCCCOC(=O)C(CCCCCCCC)CCCCCCCC` (centres unmarked) [Compound 135, 7-((8-(Decan-2-yloxy)-8-oxooctyl)(2-hydroxyethyl)amino)heptyl 2-octyldecanoate], in data set [1], the PDI was 0.130 and the “Size (nm)” value was found to be 89.5 nm. The “EE (%)” value in data set [2] is listed as 90.20%. Further, in data set [3], the pKa is on record as 6.47. Also, in data set [4], the “6 h Lipid/MC3 Avg. Luc Expression” value worked out at 13.6, the “Fold increase AUC Lipid/MC3” value came out at 15.2 and the “AUC (h * p/s)” value is on record as 1.25E+12 h * p/s. Further, in data set [4] (mice, i.v., 0.5 mg/kg), the “Total Flux 3 hours” value is 1.24E+11, the “Total Flux 6 hours” value was 9.90E+10 and the “Total Flux 24 hours” value amounted to 2.51E+09. The “total flux at 3 hours” value in data set [4] (mice, i.v., 0.5 mg/kg, comparison in words) is “highest”. Also, the “Flux in the liver” value in data set [5] (i.v., in words) is listed as “highest”. Moreover, in data set [5], the “Total Flux Liver” value came to 1.65E+10, the “Total Flux Lung” value is 2.71E+07 and the “Total Flux Spleen” value amounted to 1.39E+08.

As for `CCCCCCCCC(CCCCCCCC)OC(=O)CCCCCCCN(C)CCCCCCCC(=O)OC(CCCCCCCC)CCCCCCCC` [Compound 124, Di(heptadecan-9-yl) 8,8′-(methylazanediyl)dioctanoate], in data set [1], the PDI worked out at 0.1 and the “Size (nm)” value came to 61.3 nm. In addition, in data set [2], the “EE (%)” value amounted to 97.7%. Further, the pKa in data set [3] is recorded as 5.89. Further, in data set [4] (mice, i.v., 0.5 mg/kg), the “Total Flux 3 hours” value was 6.62E+07, the “Total Flux 6 hours” value stood at 3.91E+09 and the “Total Flux 24 hours” value turned out to be 5.13E+06. Further, in data set [5] (i.v., in words), the “Flux in the spleen” value is given as “lowest”. Also, in data set [5], the “Total Flux Liver” value came out at 8.46E+06, the “Total Flux Lung” value was 5.67E+04 and the “Total Flux Spleen” value is given as 8.06E+04.

Turning to `CCCCCCCC/C=C\CCCCCCCCN(CCO)CCCCCCCC(=O)OC(CCCCCCCC)CCCCCCCC` [Compound 31, heptadecan-9-yl (Z)-8-((2-hydroxyethyl)(octadec-9-en-1-yl)amino) octanoate], in data set [1], the PDI was found to be 0.15 and the “Size (nm)” value came out at 73.9 nm. Also, the “EE (%)” value in data set [2] is 95.11%. In data set [3], the pKa was found to be 6.64. In addition, the “Fold increase in total body Luc Flux relative to MC3 at 6 h” value in data set [4] stood at 1.21. In data set [4] (mice, i.v., 0.5 mg/kg), the “Total Flux 3 hours” value came out at 4.19E+10, the “Total Flux 6 hours” value amounted to 5.31E+10 and the “Total Flux 24 hours” value stood at 1.68E+09. Besides, in data set [5], the “Total Flux Liver” value is given as 5.17E+09, the “Total Flux Lung” value was found to be 7.55E+06 and the “Total Flux Spleen” value is given as 9.42E+07.

Turning to `CCCCCCCCCOC(=O)CCCCCCCN(CCCCCCCC(=O)OC(CCCCCCCC)CCCCCCCC)CCN1CCOCC1` [Compound 103, Heptadecan-9-yl 8-((2-morpholinoethyl)(8-(nonyloxy)-8-oxooctyl)amino)octanoate], in data set [1], the PDI came to 0.160 and the “Size (nm)” value was determined as 78.8 nm. Also, the “EE (%)” value in data set [2] stood at 90.77%. Moreover, in data set [3], the pKa stood at 6.13. Also, in data set [4], the “6 h Lipid/MC3 Avg. Luc Expression” value worked out at 0.250, the “Fold increase AUC Lipid/MC3” value is on record as 0.291 and the “AUC (h * p/s)” value was determined as 2.4E+10 h * p/s. Moreover, in data set [4] (mice, i.v., 0.5 mg/kg), the “Total Flux 3 hours” value amounted to 2.68E+09, the “Total Flux 6 hours” value amounted to 1.82E+09 and the “Total Flux 24 hours” value is 9.45E+07. For the same molecule, in data set [5], the “Total Flux Liver” value is 8.48E+07, the “Total Flux Lung” value came to 2.06E+05 and the “Total Flux Spleen” value stood at 2.65E+06.

As to `CCCCCCCCC(CCC)OC(=O)CCCN(CCO)CCCCCCCC(=O)OC(CCCCCCCC)CCCCCCCC` (centres unmarked) [Compound 74, Heptadecan-9-yl 8-((4-(dodecan-4-yloxy)-4-oxobutyl)(2-hydroxyethyl)amino)octanoate], in data set [1], the PDI stood at 0.15 and the “Size (nm)” value is 65.6 nm. Besides, in data set [2], the “EE (%)” value is 97%. Further, the pKa in data set [3] came out at 6.08. For the same molecule, in data set [4], the “Fold increase in total body Luc Flux relative to MC3 at 6 h” value was 1.005. Also, in data set [4] (mice, i.v., 0.5 mg/kg), the “Total Flux 3 hours” value is given as 3.27E+10, the “Total Flux 6 hours” value turned out to be 2.23E+10 and the “Total Flux 24 hours” value is recorded as 2.75E+08. Besides, in data set [5], the “Total Flux Liver” value amounted to 1.99E+09, the “Total Flux Lung” value was 6.93E+06 and the “Total Flux Spleen” value is listed as 2.26E+07.

Take `CCCCCCCCCOC(=O)CCCCCCCN(CCO)CCCCCCCC(=O)OC1CCCCCCCCCCCCCC1` [Compound 81, Cyclopentadecyl 8-((2-hydroxyethyl)(8-(nonyloxy)-8-oxooctyl)amino)octanoate]: in data set [1], the PDI was 0.14 and the “Size (nm)” value is 99.2 nm. Further, the “EE (%)” value in data set [2] is reported as 95.4%. Further, in data set [3], the pKa is listed as 7.14. Further, in data set [4] (mice, i.v., 0.5 mg/kg), the “Total Flux 3 hours” value worked out at 7.87E+09, the “Total Flux 6 hours” value is 9.96E+09 and the “Total Flux 24 hours” value worked out at 5.13E+08. In data set [5], the “Total Flux Liver” value is recorded as 2.74E+08, the “Total Flux Lung” value stood at 6.23E+06 and the “Total Flux Spleen” value is recorded as 4.49E+07.

Turning to `CCCCCCCCOP(=O)(OCCCCCCCC)OCCCCCCCN(CCO)CCCCCCCC(=O)OC(C)CCCCCCCC` (centres unmarked) [Compound 132, Decan-2-yl 8-((7-((bis(octyloxy)phosphoryl)oxy)heptyl)(2-hydroxyethyl)amino)octanoate], in data set [1], the PDI is given as 0.180 and the “Size (nm)” value amounted to 298.0 nm. Besides, the “EE (%)” value in data set [2] came to 30.77%. Also, in data set [3], the pKa is given as 7.34. In addition, in data set [4], the “6 h Lipid/MC3 Avg. Luc Expression” value was determined as 0.187, the “Fold increase AUC Lipid/MC3” value was 0.212 and the “AUC (h * p/s)” value turned out to be 1.75E+10 h * p/s. Further, in data set [4] (mice, i.v., 0.5 mg/kg), the “Total Flux 3 hours” value is 1.77E+09, the “Total Flux 6 hours” value is on record as 1.36E+09 and the “Total Flux 24 hours” value turned out to be 5.31E+07. Also, in data set [5], the “Total Flux Liver” value stood at 1.49E+08, the “Total Flux Lung” value turned out to be 1.39E+07 and the “Total Flux Spleen” value was 3.37E+08.

As for `CCCCCCCCC(C)OC(=O)CCCCCCCN(CCO)CCCCCCCC(=O)N(CCCCCCCC)CCCCCCCC` (centres unmarked) [Compound 130, Decan-2-yl 8-((8-(dioctylamino)-8-oxooctyl)(2-hydroxyethyl)amino)octanoate], in data set [1], the PDI is on record as 0.13 and the “Size (nm)” value amounted to 107.1 nm. In addition, in data set [2], the “EE (%)” value is 97%. Moreover, in data set [3], the pKa worked out at 6.83. Also, the “Fold increase in total body Luc Flux relative to MC3 at 6 h” value in data set [4] came out at 4.02. In data set [4] (mice, i.v., 0.5 mg/kg), the “Total Flux 3 hours” value is recorded as 6.26E+10, the “Total Flux 6 hours” value came out at 8.92E+10 and the “Total Flux 24 hours” value is listed as 1.08E+09. In addition, the “Flux in the spleen” value in data set [5] (i.v., in words) is “highest”. Besides, in data set [5], the “Total Flux Liver” value is given as 8.17E+09, the “Total Flux Lung” value was 5.88E+07 and the “Total Flux Spleen” value was found to be 1.35E+09.
